According to patent US20190192458A1, “THERAPEUTIC/PROPHYLACTIC AGENT FOR GRAFT-VERSUS-HOST DISEASE, FIBROCYTE INVASION INHIBITOR, AND INHIBITOR AGAINST TEAR REDUCTION AND REDUCTION IN GOBLET CELLS” (KEIO UNIVERSITY, priority 2016, published 2019):

What was measured:
[1] = system: MCP-1, TNF-α, and IFN-γ in blood sera; assay: ELISA of inflammation markers in blood sera; type: in vivo, mouse; settings: ELISA 28 days after bone marrow transplantation; PBA-treated vs vehicle-treated mice, n=4, P<0.05
Experimental: (§1) Bone marrow transplantation was performed as described in the above section “Bone marrow transplantation,” and the resulting allogeneic bone marrow transplantation recipient mice were divided into two groups. One group was treated with intraperitoneal injection of PBA (10 mg/kg) (Aldrich) while the other was treated with intraperitoneal injection of a solvent vehicle⋅phosphate buffered saline (PBS) (pH 7.4). The allogeneic bone marrow transplantation recipients received once-daily administration of PBA or the solvent vehicle from Day 10 to Day 27 after bone marrow transplantation. They were sacrificed on Day 28 after bone marrow transplantation.
Blood samples were withdrawn from PBA-treated mice and vehicle-treated mice, and centrifuged at 4000 rpm for 10 minutes. The levels of MCP-1, tumor necrosis factor-α (TNF-α), and interferon-γ (IFN-γ) in the resulting blood sera were measured using ELISA kits (Becton Dickinson). These assays were performed according to the protocol recommended by manufacturer Becton Dickinson.

[2] = system: mouse lacrimal gland fibroblasts; assay: Cultured lacrimal gland fibroblasts from PBA-treated and vehicle-treated mice (immunoblot, ELISA, qPCR); type: cell-based
Experimental: as §1
Fibroblasts from a mouse lacrimal gland were cultured by an established method reported by Yaguchi et al. (Yaguchi S, Ogawa Y, Shimmura S, et al., Presence and Physiologic Function of the Renin—Angiotensin System in Mouse Lacrimal Gland. Investigative Ophthalmology & Visual Science, 2012; 53: 5416-5425). A mouse lacrimal gland was collected and cut into small pieces. The tissue pieces were incubated at 37° C. in DMEM (Life Technologies Japan Ltd.) containing 5% of fetal bovine serum (FBS) Sigma), and 5% of an antibiotic. The antibiotic included a 1:1 mixture of streptomycin sulfate (Meiji Seika Pharma Co., Ltd.) and benzylpenicillin potassium (Meiji Seika Kaisha, Ltd.). The small pieces were used to grow fibroblasts starting from 3 to 4 days later. Fibroblasts were cultured in DMEM containing 5% of FBS and 5% of the antibiotic, and were used in experiments after 3 to 5 passages. Trypsin (Becton Dickinson) was used to detach fibroblasts from the culture dish.
The total RNA was extracted from the exorbital lacrimal gland, the proximal portion of the small intestine, the dorsal skin, the liver, the cultured fibroblasts, and the cultured macrophages using a miRNeasy mini kit (Qiagen), and the corresponding complementary DNAs were synthesized using a Rever Tra Ace qPCR RT kit (Toyobo Co., Ltd.). Primers used for analyzing the mRNA expression of the following genes with the TaqMan real-time polymerase chain reaction (PCR) were purchased from Applied Biosystems: housekeeping gene […] (GAPDH), glucose-regulated protein 78 (GRP78), Interleukin-1β (IL-1β), IL-6, IL-10, macrophage chemoattractant protein-1 (MCP-1), and transcription growth factor-β (TGF). A Step One Plus system (Applied Biosystems) was used to perform quantitative real time PCR, and the resulting data was analyzed by the 2^−ΔΔCT method. GAPDH was used as an internal standard for measuring the expression of mRNA.
Tissues of interest were each placed into an Eppendorf tube, and a pre-cooled RIPA buffer solution was then added to the tube. Subsequently, the tissues were each homogenized with an electric homogenizer. Samples were each allowed to stand on ice for 1 hour, and then centrifuged at 15000 rpm for 5 minutes at 4° C. Then, the supernatants were each collected in a fresh tube on ice, and used as a cell lysate. The cell lysates each received the same amount of a 5×Laemmli buffer solution, and each was heated at 100° C. for 5 minutes to denature proteins.
An aliquot of each sample having the same amount of proteins was loaded into a well of an SDS-PAGE gel, and then […]. Proteins were transferred from the gel to a membrane at 15 V for 20 minutes. The membrane was blocked at room temperature for 1 hour with 5% skim milk or 5% BSA (bovine serum albumin) in 1×TBST (a mixture of Tris-buffered saline and Tween 20). Subsequently, the membrane was incubated with a primary antibody at 4° C. overnight. The above primary antibody was diluted 1000 times with 5% skim milk or 5% BSA in 1×TBST. After incubation with the primary antibody, the membrane was washed with 1×TBST (3×10 minutes), and subjected to a secondary antibody at room temperature for 1 hour, and then washed with 1×TBST (3×10 minutes) and 1×TBS (2×10 minutes).
Proteins of interest were visualized by either one of the following two methods. […]

[3] = PBA-treated vs vehicle-treated fibroblasts, immunoblot, n=4
[4] = cultured fibroblasts from PBA-treated vs vehicle-treated mice, immunoblot

## O=C(O)CCCc1ccccc1 [PBA, 4-phenyl-n-butyric acid]
[1]
  protein level of IFN-γ in blood sera: lower protein levels
  protein level of MCP-1 in blood sera: lower protein levels
  protein level of TNF-α in blood sera: lower protein levels
[2]; PBA-treated vs vehicle-treated fibroblasts, ELISA, n=4
  production of MCP-1 by lacrimal gland fibroblasts: decreased
[2]; [3]
  protein level of CTGF in lacrimal gland fibroblasts: decreased
  protein level of HSP47 in lacrimal gland fibroblasts: decreased
[2]; PBA-treated vs vehicle-treated fibroblasts, qPCR, n=4
  mRNA levels of IL-6 in lacrimal gland fibroblasts: decreased
[2]; [4]
  CHOP in lacrimal gland fibroblasts: markedly inhibited
  GRP78 in lacrimal gland fibroblasts: markedly inhibited
  phosphorylated IRE1α in lacrimal gland fibroblasts: markedly inhibited
  phosphorylated PERK in lacrimal gland fibroblasts: markedly inhibited
  phosphorylated eIF2α in lacrimal gland fibroblasts: markedly inhibited
